Source: PubChem BioAssay (NCI)
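Five concentrations, 48 hours, 96-well plates. At the GI50, growth is halved. TGI denotes the concentration required for complete inhibition of growth.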

Tests used:
Assay in all cases: NCI-60 cell line screen, 48 h
[1] = test system: HOP-92 NSCLC
[2] = test system: M14 melanoma
[3] = test system: MDA-MB-435
[4] = test system: T-47D breast
[5] = test system: SW-620 colon
[6] = test system: U251 CNS
[7] = test system: MCF7 breast
[8] = test system: SF-539 CNS
[9] = test system: IGROV1 ovarian
[10] = test system: NCI-H226 lung
[11] = test system: HOP-62 NSCLC
[12] = test system: SF-295 CNS
[13] = test system: NCI/ADR-RES ovarian
[14] = test system: A549 NSCLC
[15] = test system: OVCAR-4 ovarian
[16] = test system: 786-0 renal
[17] = test system: KM12 colon
[18] = test system: SR leukemia
[19] = test system: K-562 leukemia
[20] = test system: UACC-62 melanoma
[21] = test system: CCRF-CEM leukemia
[22] = test system: HL-60(TB) leukemia
[23] = test system: OVCAR-8 ovarian
[24] = test system: RXF 393 renal
[25] = test system: NCI-H460 lung
[26] = test system: SNB-19 CNS
[27] = test system: SK-MEL-5 melanoma
[28] = test system: EKVX NSCLC

Work on `CCN(CC)c1ccc(N=O)cc1` yielded a GI50 [1] of 2.18 µM, a TGI [1] of 7.73 µM and a GI50 [2] of 3.47 µM. The TGI [2] was 14.4 µM, the GI50 [3] was 2.72 µM and the TGI [3] was 11.9 µM. The GI50 [4] was 2.89 µM, the TGI [4] was 16.7 µM and the GI50 [5] was 1.71 µM. It also gave a TGI [5] of 5.53 µM, a GI50 [6] of 1.14 µM and a TGI [6] of 2.73 µM. For the same molecule, the GI50 [7] was 2.76 µM, the TGI [7] was 11.8 µM and the GI50 [8] was 2.96 µM. For the same molecule, the TGI [8] was 10.1 µM, the GI50 [9] was 2.05 µM and the TGI [9] was 6.41 µM. For the same molecule, the GI50 [10] was 13.6 µM, the TGI [10] was 38.4 µM and the GI50 [11] was 2.78 µM. The TGI [11] was 11.8 µM, the GI50 [12] was 4.87 µM and the TGI [12] was 20.5 µM. The GI50 [13] was 2.33 µM, the TGI [13] was 7 µM and the GI50 [14] was 2.07 µM. For the same molecule, the TGI [14] was 5.56 µM, the GI50 [15] was 3.26 µM and the TGI [15] was 13.5 µM. The GI50 [16] was 7.46 µM, the TGI [16] was 23.6 µM and the GI50 [17] was 3.39 µM. The TGI [17] was 13.1 µM, the GI50 [18] was 3.74 µM and the TGI [18] was 46.2 µM. It also gave a GI50 [19] of 2.23 µM, a TGI [19] of 15.9 µM and a GI50 [20] of 6.66 µM. The TGI [20] was 23.5 µM, the GI50 [21] was 0.937 µM and the TGI [21] was 13 µM. The GI50 [22] was 2.85 µM, the TGI [22] was 13.6 µM and the GI50 [23] was 3.14 µM. It also gave a TGI [23] of 12.3 µM, a GI50 [24] of 2.46 µM and a TGI [24] of 7.45 µM. For the same molecule, the GI50 [25] was 5.12 µM, the TGI [25] was 34.2 µM and the GI50 [26] was 12.8 µM. The TGI [26] was 29.9 µM, the GI50 [27] was 2.47 µM and the TGI [27] was 7.38 µM. For the same molecule, the GI50 [28] was 10.2 µM and the TGI [28] was 26.8 µM.
